Results taken from patent US9242998B2, “Tetracyclic heterocycle compounds and methods of use thereof for the treatment of hepatitis C” (priority 2013, dated 2016).

Tests used:
[1] = tested on: HCV genotype 1a replicon; assay: HCV replicon assay, genotype 1a (cell ELISA for replicon-encoded NS3/4A); type: cell-based; conditions: Hepatitis C virus, 96 h, read-out: 1a IC50
Experimental: (§1) Measurement of inhibition by compounds was performed using the HCV replicon system. Several different replicons encoding different HCV genotypes or mutations were used. In addition, potency measurements were made using different formats of the replicon assay, including different ways of measurements and different plating formats. See Jan M. Vrolijk et al., A replicons-based bioassay for the measurement of interferons in patients with chronic hepatitis C, 110 J. V[…] 201 (2003); Steven S. Carroll et al., Inhibition of Hepatitis C Virus RNA Replication by 2′-Modified Nucleoside Analogs, 278(14) J. BIOLOGICAL CHEMISTRY 11979 (2003). However, the underlying principles are common to all of these determinations, and are outlined below.
(§2) Stable neomycin phosphotransferase encoding replicons-harboring cell lines were used, so all cell lines were maintained under G418 selection prior to the assay. Potency was determined using a cell ELISA assay with an antibody to the replicons encoded NS3/4a protease. See Caterina Trozzi et al., In Vitro Selection and Characterization of Hepatitis C Virus Serine Protease Variants Resistant to an Active-Site Peptide Inhibitor, 77(6) J. Virol. 3669 (2003). To initiate an assay, replicon cells were plated in the presence of a dilution series of test compound in the absence of G418. Typically, the assays were performed in a 96-well plate formate for manual operation, or a 384-well plate format for automated assay. Replicon cells and compound were incubated for 96 hours. At the end of the assay, cells were washed free of media and compound, and the cells were then lysed. RNA was quantified indirectly through detection of replicon-encoded NS3/4A protein levels, through an ELISA-based assay with an antibody specific for NS3/4A. IC50 determinations were calculated as a percentage of a DMSO control by fitting the data to a four-parameter fit function and the data obtained is provided in the table below.
(§3) Data for selected compounds of the present invention was obtained for genotypes 1a and 1b using this method and is provided in the table below: […]

[2] = tested on: HCV genotype 1b replicon; assay: HCV replicon assay, genotype 1b (cell ELISA for replicon-encoded NS3/4A); type: cell-based; conditions: Hepatitis C virus, 96 h, read-out: 1b IC50
Experimental: as §1, §2, §3

Compound CNC(=O)c1c(-c2ccc(Oc3ccc(F)cc3)nc2)oc2cc(N(C)S(C)(=O)=O)c(-c3ccc4c(n3)-c3cc5c(F)cccc5n3CO4)cc12 [Compound 27, 5-(11-fluoro-6H-pyrido[2′,3′:5,6][1,3]oxazino[3,4-a]indol-2-yl)-2-(6-(4-fluorophenoxy)pyridin-3-yl)-N-methyl-6-(N-methylmethylsulfonamido)benzofuran-3-carboxamide] has an IC50 [1] of 23 nM and an IC50 [2] of 34 nM.
